Source: patent US20220323406A1, “METHODS AND COMPOSITIONS FOR DIFFERENTIATING STEM CELLS” (Massachusetts Institute of Technology, priority 2019, published 2022)

How the values were obtained:
[1] = tested on: ENR+CD organoids (ISC to Paneth cell differentiation); test: Primary screen: basal (non-stimulated) lysozyme secretion LYZ.NS, 2.5-D 384-well ENR+CD organoid differentiation; format: cell-based, mouse; details: primary screen; for Z.LYZ.NS: standard z score
Text: (§1) High-throughput screening.

[2] = tested on: ENR+CD organoids (ISC to Paneth cell differentiation); test: Primary screen: CCh-stimulated lysozyme secretion LYZ.S, 2.5-D 384-well ENR+CD organoid differentiation; format: cell-based, mouse; details: primary screen
Text: as §1

ENR+CD organoids = test: Primary screen: ATP (CellTiter-Glo 3D, CTG) cell number/viability, 2.5-D 384-well ENR+CD organoids; details: primary screen; for Z.CTG: standard z score;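 as to all read-outs here: compounds given at plating and again on day 3 over a 6-day differentiation from ENR+CV stem-cell-enriched precursors, ATP measured on day 6, plate median as control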
[3] = dose 0.08 uM, FC relative to plate median
[4] = dose 0.40 uM, FC relative to plate median
[5] = dose 2.00 uM, FC relative to plate median
[6] = dose 10.00 uM, FC relative to plate median
[7] = 1st dose row of the treatment (0.08 uM by row order; dose not reprinted)
[8] = 2nd dose row of the treatment (0.40 uM by row order; dose not reprinted)
[9] = 3rd dose row of the treatment (2.00 uM by row order; dose not reprinted)
[10] = 4th dose row of the treatment (10.00 uM by row order; dose not reprinted)

## S3I-201
[1]; [3]
  Dose.FC.LYZ.NS: 0.051 log2 fold change
[1]; dose 0.08 uM
  Z.LYZ.NS: 0.445
[1]; [4]
  Dose.FC.LYZ.NS: 0.061 log2 fold change
[1]; dose 0.40 uM
  Z.LYZ.NS: 0.527
[1]; [5]
  Dose.FC.LYZ.NS: 0.024 log2 fold change
[1]; dose 2.00 uM
  Z.LYZ.NS: 0.212
[1]; [6]
  Dose.FC.LYZ.NS: −0.016 log2 fold change
[1]; dose 10.00 uM
  Z.LYZ.NS: −0.143
[2]; [3]
  Dose.FC.LYZ.S: 0.033 log2 fold change
[2]; [4]
  Dose.FC.LYZ.S: 0.157 log2 fold change
[2]; [5]
  Dose.FC.LYZ.S: −0.004 log2 fold change
[2]; [6]
  Dose.FC.LYZ.S: −0.052 log2 fold change
ENR+CD organoids; [3]
  Dose.FC.CTG: 0.321 log2 fold change
ENR+CD organoids; dose 0.08 uM
  Z.CTG: 0.766
ENR+CD organoids; [4]
  Dose.FC.CTG: 0.160 log2 fold change
ENR+CD organoids; dose 0.40 uM
  Z.CTG: 0.382
ENR+CD organoids; [5]
  Dose.FC.CTG: 0.079 log2 fold change
ENR+CD organoids; dose 2.00 uM
  Z.CTG: 0.188
ENR+CD organoids; [6]
  Dose.FC.CTG: −0.140 log2 fold change
ENR+CD organoids; dose 10.00 uM
  Z.CTG: −0.334

## CC(C)c1c(C(=O)Nc2ccccc2)c(-c2ccccc2)c(-c2ccc(F)cc2)n1CC[C@@H](O)C[C@@H](O)CC(=O)[O-].CC(C)c1c(C(=O)Nc2ccccc2)c(-c2ccccc2)c(-c2ccc(F)cc2)n1CC[C@@H](O)C[C@@H](O)CC(=O)[O-].[Ca+2] [Atorvastatin Calcium]
[1]; dose 0.08 uM
  Dose.FC.LYZ.NS: −0.009 log2 fold change
  Z.LYZ.NS (standard z score): −0.077
[1]; dose 0.40 uM
  Dose.FC.LYZ.NS: 0.007 log2 fold change
  Z.LYZ.NS (standard z score): 0.062
[1]; dose 2.00 uM
  Dose.FC.LYZ.NS: −0.247 log2 fold change
  Z.LYZ.NS (standard z score): −2.148
[1]; dose 10.00 uM
  Dose.FC.LYZ.NS: −0.235 log2 fold change
  Z.LYZ.NS (standard z score): −2.045
[2]; dose 0.08 uM
  Dose.FC.LYZ.S: 0.022 log2 fold change
[2]; dose 0.40 uM
  Dose.FC.LYZ.S: −0.062 log2 fold change
[2]; dose 2.00 uM
  Dose.FC.LYZ.S: −0.354 log2 fold change
[2]; dose 10.00 uM
  Dose.FC.LYZ.S: −0.305 log2 fold change
ENR+CD organoids; dose 0.08 uM
  Dose.FC.CTG: −0.129 log2 fold change
  Z.CTG (standard z score): −0.309
ENR+CD organoids; dose 0.40 uM
  Dose.FC.CTG: −0.348 log2 fold change
  Z.CTG (standard z score): −0.831
ENR+CD organoids; dose 2.00 uM
  Dose.FC.CTG: −1.085 log2 fold change
  Z.CTG (standard z score): −2.591
ENR+CD organoids; dose 10.00 uM
  Dose.FC.CTG: −1.583 log2 fold change
  Z.CTG (standard z score): −3.780

## O=[N+]([O-])c1ccc2c(c1)S(=O)(=O)C=C2 [Stattic]
[1]; [3]
  Dose.FC.LYZ.NS: 0.130 log2 fold change
[1]; dose 0.08 uM
  Z.LYZ.NS: 1.131
[1]; [4]
  Dose.FC.LYZ.NS: 0.022 log2 fold change
[1]; dose 0.40 uM
  Z.LYZ.NS: 0.189
[1]; [5]
  Dose.FC.LYZ.NS: 0.147 log2 fold change
[1]; dose 2.00 uM
  Z.LYZ.NS: 1.276
[1]; [6]
  Dose.FC.LYZ.NS: −0.021 log2 fold change
[1]; dose 10.00 uM
  Z.LYZ.NS: −0.186
[2]; [3]
  Dose.FC.LYZ.S: 0.150 log2 fold change
[2]; [4]
  Dose.FC.LYZ.S: 0.033 log2 fold change
[2]; [5]
  Dose.FC.LYZ.S: 0.082 log2 fold change
[2]; [6]
  Dose.FC.LYZ.S: −0.019 log2 fold change
ENR+CD organoids; [3]
  Dose.FC.CTG: −0.080 log2 fold change
ENR+CD organoids; dose 0.08 uM
  Z.CTG: −0.191
ENR+CD organoids; [4]
  Dose.FC.CTG: −0.005 log2 fold change
ENR+CD organoids; dose 0.40 uM
  Z.CTG: −0.011
ENR+CD organoids; [5]
  Dose.FC.CTG: 0.033 log2 fold change
ENR+CD organoids; dose 2.00 uM
  Z.CTG: 0.078
ENR+CD organoids; [6]
  Dose.FC.CTG: −0.025 log2 fold change
ENR+CD organoids; dose 10.00 uM
  Z.CTG: −0.060

## N#Cc1c(O)c2c(-c3ccc(-c4ccccc4O)cc3)csc2[nH]c1=O [A-769662]
[1]; [7]
  SSMD.LYZ.NS_Rep (strictly standardized mean difference): 0.286
[1]; [8]
  SSMD.LYZ.NS_Rep (strictly standardized mean difference): 0.498
[1]; [9]
  SSMD.LYZ.NS_Rep (strictly standardized mean difference): 0.554
[1]; [10]
  SSMD.LYZ.NS_Rep (strictly standardized mean difference): 0.068
[1]; dose 0.08 uM
  Dose.FC.LYZ.NS: 0.045 log2 fold change
  Z.LYZ.NS (standard z score): 0.394
[1]; dose 0.40 uM
  Dose.FC.LYZ.NS: 0.069 log2 fold change
  Z.LYZ.NS (standard z score): 0.599
[1]; dose 2.00 uM
  Dose.FC.LYZ.NS: 0.054 log2 fold change
  Z.LYZ.NS (standard z score): 0.473
[1]; dose 10.00 uM
  Dose.FC.LYZ.NS: 0.009 log2 fold change
  Z.LYZ.NS (standard z score): 0.075
[2]; [7]
  SSMD.LYZ.S_Rep (strictly standardized mean difference): 0.365
  Z.LYZ.S (standard z score): 0.426
[2]; [8]
  SSMD.LYZ.S_Rep (strictly standardized mean difference): 0.472
  Z.LYZ.S (standard z score): 0.460
[2]; [9]
  SSMD.LYZ.S_Rep (strictly standardized mean difference): 0.488
  Z.LYZ.S (standard z score): 1.191
[2]; [10]
  SSMD.LYZ.S_Rep (strictly standardized mean difference): 0.119
  Z.LYZ.S (standard z score): 0.121
[2]; dose 0.08 uM
  Dose.FC.LYZ.S: 0.066 log2 fold change
[2]; dose 0.40 uM
  Dose.FC.LYZ.S: 0.071 log2 fold change
[2]; dose 2.00 uM
  Dose.FC.LYZ.S: 0.184 log2 fold change
[2]; dose 10.00 uM
  Dose.FC.LYZ.S: 0.019 log2 fold change
ENR+CD organoids; [7]
  SSMD.CTG.Rep (strictly standardized mean difference): −0.255
ENR+CD organoids; [8]
  SSMD.CTG.Rep (strictly standardized mean difference): 0.019
ENR+CD organoids; [9]
  SSMD.CTG.Rep (strictly standardized mean difference): −0.312
ENR+CD organoids; [10]
  SSMD.CTG.Rep (strictly standardized mean difference): −0.056
ENR+CD organoids; dose 0.08 uM
  Dose.FC.CTG: −0.074 log2 fold change
  Z.CTG (standard z score): −0.177
ENR+CD organoids; dose 0.40 uM
  Dose.FC.CTG: 0.007 log2 fold change
  Z.CTG (standard z score): 0.016
ENR+CD organoids; dose 2.00 uM
  Dose.FC.CTG: −0.127 log2 fold change
  Z.CTG (standard z score): −0.304
ENR+CD organoids; dose 10.00 uM
  Dose.FC.CTG: −0.015 log2 fold change
  Z.CTG (standard z score): −0.036
